According to ChEMBL document CHEMBL1201862, “PubChem BioAssay data set” (2004):
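The compound was tested at five concentrations on cells cultured in 96-well plates, with a 48-hour exposure period. The concentration for 50% growth inhibition is given as GI50.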 Activity calls are given as the source filed them. Rule as the data show it: active = GI50 up to about 1.1 µM and inactive = higher.

How the values were obtained:
Assay in all cases: NCI tumour cell line growth inhibition, 48 h
A498 = system: A498
EKVX = system: EKVX
HT-29 = system: HT-29
KM12 = system: KM12
LOX IMVI = system: LOX IMVI
MCF7 = system: MCF7
NCI-H23 = system: NCI-H23
SF-268 = system: SF-268
SK-MEL-28 = system: SK-MEL-28
SK-MEL-5 = system: SK-MEL-5
SK-OV-3 = system: SK-OV-3
SN12C = system: SN12C
SW-620 = system: SW-620
U-251 = system: U-251
UACC-257 = system: UACC-257
SR = system: SR
DU-145 = system: DU-145
MDA-MB-435 = system: MDA-MB-435
PC-3 = system: PC-3

**Q.** Which results are given for CCOC(=O)/C(O)=C1\C(=O)N(C)C(=O)C1c1cccc(OC)c1 (centres undefined)?
**A.** GI50 (A498): 95.3 µM (inactive); GI50 (EKVX): > 100 µM (inactive); GI50 (HT-29): > 100 µM (inactive); GI50 (KM12): > 100 µM (inactive); GI50 (LOX IMVI): > 100 µM (inactive); GI50 (MCF7): > 100 µM (inactive); GI50 (NCI-H23): > 100 µM (inactive); GI50 (SF-268): > 100 µM (inactive); GI50 (SK-MEL-28): > 100 µM (inactive); GI50 (SK-MEL-5): > 100 µM (inactive); GI50 (SK-OV-3): > 100 µM (inactive); GI50 (SN12C): > 100 µM (inactive); GI50 (SW-620): > 100 µM (inactive); GI50 (U-251): > 100 µM (inactive); GI50 (UACC-257): > 100 µM (inactive)

**Q.** How did the GI50 (A498) turn out when O=C1C=CC2(C=C1)C[C@H](NC(=O)C(F)(F)F)C(=O)O2 was run?
**A.** > 100 µM (inactive)

**Q.** What about the GI50 (EKVX) of the same molecule?
**A.** 18.2 µM (inactive)

**Q.** What about the GI50 (HT-29) of the same molecule?
**A.** 79.6 µM (inactive)

**Q.** What about the GI50 (KM12) of the same molecule?
**A.** 73.5 µM (inactive)

**Q.** What about the GI50 (LOX IMVI) of the same molecule?
**A.** 22.3 µM (inactive)

**Q.** What about the GI50 (NCI-H23) of the same molecule?
**A.** 26.7 µM (inactive)

**Q.** What about the GI50 (SF-268) of the same molecule?
**A.** 37.9 µM (inactive)

**Q.** What about the GI50 (SK-MEL-28) of the same molecule?
**A.** 18.5 µM (inactive)

**Q.** What about the GI50 (SK-MEL-5) of the same molecule?
**A.** 76.2 µM (inactive)

**Q.** And the GI50 (SK-OV-3)?
**A.** > 100 µM (inactive)

**Q.** What about the GI50 (SN12C) of the same molecule?
**A.** 50 µM (inactive)

**Q.** What about the GI50 (SR) of the same molecule?
**A.** 37 µM (inactive)

**Q.** What about the GI50 (U-251) of the same molecule?
**A.** 54.3 µM (inactive)

**Q.** And the GI50 (UACC-257)?
**A.** 34.8 µM (inactive)

**Q.** How did the GI50 (A498) turn out when Nn1c(CNc2ccc(-c3nnc(Nc4ccc(Cl)cc4)n3N)cc2)nnc1Nc1ccc(Cl)cc1 was run?
**A.** > 100 µM (inactive)

**Q.** What about the GI50 (DU-145) of the same molecule?
**A.** > 100 µM (inactive)

**Q.** What about the GI50 (EKVX) of the same molecule?
**A.** > 100 µM (inactive)

**Q.** What about the GI50 (HT-29) of the same molecule?
**A.** 44.2 µM (inactive)

**Q.** And the GI50 (KM12)?
**A.** > 100 µM (inactive)

**Q.** What about the GI50 (MCF7) of the same molecule?
**A.** 61.1 µM (inactive)

**Q.** And the GI50 (MDA-MB-435)?
**A.** > 100 µM (inactive)

**Q.** What about the GI50 (NCI-H23) of the same molecule?
**A.** > 100 µM (inactive)

**Q.** What about the GI50 (PC-3) of the same molecule?
**A.** > 100 µM (inactive)

**Q.** And the GI50 (SF-268)?
**A.** > 100 µM (inactive)

**Q.** What about the GI50 (SK-MEL-28) of the same molecule?
**A.** > 100 µM (inactive)

**Q.** And the GI50 (SK-MEL-5)?
**A.** > 100 µM (inactive)

**Q.** What about the GI50 (SK-OV-3) of the same molecule?
**A.** > 100 µM (inactive)

**Q.** And the GI50 (SN12C)?
**A.** > 100 µM (inactive)

**Q.** What about the GI50 (SW-620) of the same molecule?
**A.** > 100 µM (inactive)

**Q.** And the GI50 (U-251)?
**A.** > 100 µM (inactive)

**Q.** And the GI50 (UACC-257)?
**A.** > 100 µM (inactive)

**Q.** Which results are given for N=C(N)N/N=C(/CC1OC(=O)c2ccccc21)c1ccc2ccccc2c1 (centres undefined)?
**A.** GI50 (A498): 16 µM (inactive); GI50 (EKVX): 23.1 µM (inactive); GI50 (HT-29): 21.9 µM (inactive); GI50 (KM12): 12.9 µM (inactive); GI50 (LOX IMVI): 23.1 µM (inactive); GI50 (NCI-H23): 26.2 µM (inactive); GI50 (SF-268): 13.6 µM (inactive); GI50 (SK-MEL-28): 18.6 µM (inactive); GI50 (SK-MEL-5): 21.4 µM (inactive); GI50 (SK-OV-3): 21.9 µM (inactive); GI50 (SN12C): 19.6 µM (inactive); GI50 (SR): 14.2 µM (inactive); GI50 (U-251): 14.6 µM (inactive); GI50 (UACC-257): 14.6 µM (inactive)

**Q.** With COc1ccc(C2c3cc4c(cc3OC(O)(CO)C2C(=O)O)OCO4)cc1.COc1ccc(C2c3cc4c(cc3OC3(O)COC(=O)C23)OCO4)cc1 (centres undefined) as the molecule, how does the GI50 (A498) read?
**A.** 89.3 µM (inactive)

**Q.** What about the GI50 (EKVX) of the same molecule?
**A.** 31.4 µM (inactive)

**Q.** What about the GI50 (HT-29) of the same molecule?
**A.** 24.7 µM (inactive)

**Q.** What about the GI50 (KM12) of the same molecule?
**A.** 28.2 µM (inactive)

**Q.** What about the GI50 (LOX IMVI) of the same molecule?
**A.** 16.5 µM (inactive)

**Q.** What about the GI50 (NCI-H23) of the same molecule?
**A.** 23.4 µM (inactive)

**Q.** And the GI50 (SF-268)?
**A.** 28 µM (inactive)

**Q.** And the GI50 (SK-MEL-28)?
**A.** 25.2 µM (inactive)

**Q.** What about the GI50 (SK-MEL-5) of the same molecule?
**A.** 19.8 µM (inactive)

**Q.** And the GI50 (SK-OV-3)?
**A.** 40.1 µM (inactive)

**Q.** And the GI50 (SN12C)?
**A.** 23.7 µM (inactive)

**Q.** And the GI50 (SR)?
**A.** 19.2 µM (inactive)

**Q.** What about the GI50 (SW-620) of the same molecule?
**A.** 18.7 µM (inactive)

**Q.** And the GI50 (U-251)?
**A.** 19.8 µM (inactive)

**Q.** What about the GI50 (UACC-257) of the same molecule?
**A.** 21.5 µM (inactive)

**Q.** How did the GI50 (A498) turn out when O=S(=O)(O)c1cc(/N=[N+](\[O-])c2ccc(/N=N/c3ccccc3)cc2S(=O)(=O)O)ccc1/C=C/c1ccc(/N=[N+](\[O-])c2ccc(/N=N/c3ccccc3)cc2S(=O)(=O)O)cc1S(=O)(=O)O was run?
**A.** > 100 µM (inactive)

**Q.** What about the GI50 (EKVX) of the same molecule?
**A.** > 100 µM (inactive)

**Q.** What about the GI50 (HT-29) of the same molecule?
**A.** > 100 µM (inactive)

**Q.** And the GI50 (KM12)?
**A.** > 100 µM (inactive)

**Q.** And the GI50 (LOX IMVI)?
**A.** > 100 µM (inactive)

**Q.** What about the GI50 (MCF7) of the same molecule?
**A.** > 100 µM (inactive)

**Q.** And the GI50 (NCI-H23)?
**A.** > 100 µM (inactive)

**Q.** What about the GI50 (SF-268) of the same molecule?
**A.** > 100 µM (inactive)

**Q.** What about the GI50 (SK-MEL-28) of the same molecule?
**A.** > 100 µM (inactive)

**Q.** What about the GI50 (SK-MEL-5) of the same molecule?
**A.** > 100 µM (inactive)

**Q.** And the GI50 (SK-OV-3)?
**A.** > 100 µM (inactive)

**Q.** And the GI50 (SN12C)?
**A.** > 100 µM (inactive)

**Q.** What about the GI50 (SW-620) of the same molecule?
**A.** > 100 µM (inactive)

**Q.** What about the GI50 (U-251) of the same molecule?
**A.** > 100 µM (inactive)

**Q.** What about the GI50 (UACC-257) of the same molecule?
**A.** > 100 µM (inactive)

**Q.** Which results are given for COc1cc(-c2cc(=O)c3c(O)c(OC)c(OC)c(OC)c3o2)ccc1O?
**A.** GI50 (A498): 2.61 µM (inactive); GI50 (EKVX): > 100 µM (inactive); GI50 (KM12): 29.9 µM (inactive); GI50 (LOX IMVI): 16.8 µM (inactive); GI50 (NCI-H23): 27.7 µM (inactive); GI50 (SF-268): 26.5 µM (inactive); GI50 (SK-MEL-28): 23.5 µM (inactive); GI50 (SK-MEL-5): 15.3 µM (inactive); GI50 (SK-OV-3): 11.2 µM (inactive); GI50 (SN12C): 26.7 µM (inactive); GI50 (SR): 23 µM (inactive); GI50 (SW-620): 31.7 µM (inactive); GI50 (U-251): 8.97 µM (inactive); GI50 (UACC-257): 20.7 µM (inactive)

**Q.** How did the GI50 (A498) turn out when CC[C@@H](C(=O)[C@@H](C)[C@@H](O)[C@H](C)CCc1ccc(C)c(O)c1C(=O)O)[C@H]1O[C@](CC)([C@H]2CC[C@](O)(CC)[C@H](C)O2)C[C@@H]1C [LASALOCID A SODIUM] was run?
**A.** 0.573 µM (active)

**Q.** What about the GI50 (EKVX) of the same molecule?
**A.** 2.16 µM (inactive)

**Q.** What about the GI50 (HT-29) of the same molecule?
**A.** 1.06 µM (active)

**Q.** What about the GI50 (KM12) of the same molecule?
**A.** 1.84 µM (inactive)

**Q.** And the GI50 (LOX IMVI)?
**A.** 2.77 µM (inactive)

**Q.** And the GI50 (NCI-H23)?
**A.** 1.39 µM (inactive)

**Q.** What about the GI50 (SF-268) of the same molecule?
**A.** 2.21 µM (inactive)

**Q.** What about the GI50 (SK-MEL-28) of the same molecule?
**A.** 1.3 µM (inactive)

**Q.** What about the GI50 (SK-MEL-5) of the same molecule?
**A.** 1.66 µM (inactive)

**Q.** And the GI50 (SK-OV-3)?
**A.** 2.92 µM (inactive)

**Q.** And the GI50 (SN12C)?
**A.** 1.91 µM (inactive)

**Q.** What about the GI50 (SR) of the same molecule?
**A.** 1.12 µM (inactive)

**Q.** What about the GI50 (SW-620) of the same molecule?
**A.** 2.33 µM (inactive)

**Q.** And the GI50 (U-251)?
**A.** 1.34 µM (inactive)

**Q.** And the GI50 (UACC-257)?
**A.** 2.99 µM (inactive)
